In ChEMBL document CHEMBL1275577, “Study of the in vitro activities of rifaximin and comparator agents against 536 anaerobic intestinal bacteria from the perspective of potential utility in pathology involving bowel flora” (Antimicrob Agents Chemother, 2009):
Values after ≈ are worked out from the molar mass of the structure shown.

Tests used:
Type in all cases: functional
[1] = tested on: Fusobacterium necrophorum; assay: Antimicrobial activity against Fusobacterium necrophorum by Wadsworth agar dilution method
[2] = tested on: Blautia producta; assay: Antimicrobial activity against Ruminococcus productus by Wadsworth agar dilution method
[3] = tested on: Bifidobacterium pseudolongum; assay: Antimicrobial activity against Bifidobacterium pseudolongum by Wadsworth agar dilution method
[4] = tested on: Lactobacillus acidophilus; assay: Antimicrobial activity against Lactobacillus acidophilus by Wadsworth agar dilution method
[5] = tested on: Clostridium symbiosum; assay: Antimicrobial activity against Clostridium symbiosum by Wadsworth agar dilution method
[6] = tested on: Eubacterium limosum; assay: Antimicrobial activity against Eubacterium limosum by Wadsworth agar dilution method
[7] = tested on: Eubacterium cylindroides; assay: Antimicrobial activity against Eubacterium cylindroides by Wadsworth agar dilution method; details: Faecalitalea cylindroides
[8] = tested on: Desulfovibrio desulfuricans; assay: Antimicrobial activity against Desulfovibrio desulfuricans by Wadsworth agar dilution method
[9] = tested on: Peptostreptococcus anaerobius; assay: Antimicrobial activity against Peptostreptococcus anaerobius by Wadsworth agar dilution method
[10] = tested on: Clostridium aminobutyricum; assay: Antimicrobial activity against Clostridium aminobutyricum by Wadsworth agar dilution method
[11] = tested on: Paraclostridium bifermentans; assay: Antimicrobial activity against Clostridium bifermentans by Wadsworth agar dilution method
[12] = tested on: Fusobacterium sp.; assay: Antimicrobial activity against Fusobacterium sp. by Wadsworth agar dilution method
[13] = tested on: Prevotella melaninogenica; assay: Antimicrobial activity against Prevotella melaninogenica by Wadsworth agar dilution method
[14] = tested on: Anaerococcus tetradius; assay: Antimicrobial activity against Anaerococcus tetradius by Wadsworth agar dilution method
[15] = tested on: Atopobium minutum; assay: Antimicrobial activity against Atopobium minutum by Wadsworth agar dilution method
[16] = tested on: Prevotella bivia; assay: Antimicrobial activity against Prevotella bivia by Wadsworth agar dilution method
[17] = tested on: Bacteroides nordii; assay: Antimicrobial activity against Bacteroides nordii by Wadsworth agar dilution method
[18] = tested on: Eubacterium saburreum; assay: Antimicrobial activity against Eubacterium saburreum by Wadsworth agar dilution method; details: Lachnoanaerobaculum saburreum
[19] = tested on: Prevotella disiens; assay: Antimicrobial activity against Prevotella disiens by Wadsworth agar dilution method

Compound | MIC50 [1] [µg/mL] | MIC90 [1] [µg/mL] | MIC50 [2] [µg/mL] | MIC90 [2] [µg/mL] | MIC50 [3] [µg/mL] | MIC90 [3] [µg/mL] | MIC50 [4] [µg/mL] | MIC90 [4] [µg/mL] | MIC50 [5] [µg/mL] | MIC90 [5] [µg/mL] | MIC50 [6] [µg/mL] | MIC90 [6] [µg/mL] | MIC50 [7] [µg/mL] | MIC90 [7] [µg/mL] | MIC50 [8] [µg/mL] | MIC90 [8] [µg/mL] | MIC50 [9] [µg/mL] | MIC90 [9] [µg/mL] | MIC50 [10] [µg/mL] | MIC90 [10] [µg/mL] | also measured
NC[C@@H]1O[C@H](O[C@H]2[C@@H](O)[C@H](O[C@@H]3[C@@H](O)[C@H](N)C[C@H](N)[C@H]3O[C@H]3O[C@H](CN)[C@@H](O)[C@H](O)[C@H]3N)O[C@@H]2CO)[C@H](N)[C@@H](O)[C@@H]1O [FRAMYCETIN] | 512 (≈ 833 µM) | > 1020 | 128 (≈ 208 µM) | 512 (≈ 833 µM) | 128 (≈ 208 µM) | 1020 (≈ 1670 µM) | 128 (≈ 208 µM) | 1020 (≈ 1670 µM) | 256 (≈ 416 µM) | 1020 (≈ 1670 µM) | 128 (≈ 208 µM) | 1020 (≈ 1670 µM) | 128 (≈ 208 µM) | 1020 (≈ 1670 µM) | > 1020 | > 1020 | 128 (≈ 208 µM) | 512 (≈ 833 µM) | 256 (≈ 416 µM) | 1020 (≈ 1670 µM) | MIC [8]: > 1020 µg/mL; MIC50 [11]: 256 µg/mL (≈ 416 µM); MIC90 [11]: 1020 µg/mL (≈ 1670 µM); MIC50 [12]: 512 µg/mL (≈ 833 µM); MIC90 [12]: > 1020 µg/mL; MIC50 [13]: 512 µg/mL (≈ 833 µM); MIC90 [13]: 1020 µg/mL (≈ 1670 µM); MIC50 [14]: 128 µg/mL (≈ 208 µM); MIC90 [14]: 512 µg/mL (≈ 833 µM); MIC50 [15]: 128 µg/mL (≈ 208 µM); MIC90 [15]: 1020 µg/mL (≈ 1670 µM); MIC50 [16]: 512 µg/mL (≈ 833 µM); MIC90 [16]: 1020 µg/mL (≈ 1670 µM); MIC50 [17]: > 1020 µg/mL; MIC90 [17]: > 1020 µg/mL; MIC50 [18]: 128 µg/mL (≈ 208 µM); MIC90 [18]: 1020 µg/mL (≈ 1670 µM); MIC50 [19]: 512 µg/mL (≈ 833 µM); MIC90 [19]: 1020 µg/mL (≈ 1670 µM)
CC(=O)Oc1ccccc1C(=O)Nc1ncc([N+](=O)[O-])s1 [NITAZOXANIDE] | 1 (≈ 3.25 µM) | 8 (≈ 26 µM) | 0.5 (≈ 1.63 µM) | 1 (≈ 3.25 µM) | 2 (≈ 6.51 µM) | 32 (≈ 104 µM) | 2 (≈ 6.51 µM) | 32 (≈ 104 µM) | 0.5 (≈ 1.63 µM) | 4 (≈ 13 µM) | 2 (≈ 6.51 µM) | 32 (≈ 104 µM) | 2 (≈ 6.51 µM) | 32 (≈ 104 µM) | 4 (≈ 13 µM) | 4 (≈ 13 µM) | 0.5 (≈ 1.63 µM) | 1 (≈ 3.25 µM) | 0.5 (≈ 1.63 µM) | 4 (≈ 13 µM) | MIC50 [11]: 0.5 µg/mL (≈ 1.63 µM); MIC90 [11]: 4 µg/mL (≈ 13 µM); MIC50 [12]: 1 µg/mL (≈ 3.25 µM); MIC90 [12]: 8 µg/mL (≈ 26 µM); MIC50 [13]: 4 µg/mL (≈ 13 µM); MIC90 [13]: 8 µg/mL (≈ 26 µM); MIC50 [14]: 0.5 µg/mL (≈ 1.63 µM); MIC90 [14]: 1 µg/mL (≈ 3.25 µM); MIC50 [15]: 2 µg/mL (≈ 6.51 µM); MIC90 [15]: 32 µg/mL (≈ 104 µM); MIC50 [16]: 4 µg/mL (≈ 13 µM); MIC90 [16]: 8 µg/mL (≈ 26 µM); MIC50 [17]: 4 µg/mL (≈ 13 µM); MIC90 [17]: 4 µg/mL (≈ 13 µM); MIC50 [18]: 2 µg/mL (≈ 6.51 µM); MIC90 [18]: 32 µg/mL (≈ 104 µM); MIC50 [19]: 4 µg/mL (≈ 13 µM); MIC90 [19]: 8 µg/mL (≈ 26 µM)
